# Measurements published in article PMC12734986 (Marine Drugs, 2025).
# Residues, ends and D or L forms follow the SMILES beside them.
# Tests used:
# [1] = Body weight in the A549 xenograft model; assay type: in vivo, mouse; conditions: 20 mg/kg intratumorally, six injections, during the treatment period
# Method: (§1) Xenograft tumors were generated by subcutaneous injection of A549 lung cancer cells (1 × 10^6 cells/100 µL) into the right flanks of BALB/c female nude mice (5 weeks of age, n = 20). […] The control mice were injected with equal volumes of DW. The tumor size was measured using a caliper (calculated volume = shortest diameter^2 × […]) at 2- or 3-day intervals. The methods were performed in accordance with the relevant guidelines and regulations and were approved by the Animal Care and Use Committee (IACUC) of the National Marine Biodiversity Institute of Korea (Approval No.: MAB-004; approval date: 2 December 2024).
# [2] = tested on: lung cancer cells; assay: Cell morphology by inverted light microscope; assay type: cell-based, human; conditions: 10 μM MP28, lung cancer cells
# Method: (§2) Lung cancer cells were seeded at a density of 10^3 cells in a 35 mm dish and cultured with the peptide for 7 days, until macroscopic colonies formed. Following incubation, the cells were washed and stained with 0.1% crystal violet for 30 min, and the colonies were imaged and counted. Cell morphology was observed and captured at ×10 magnification using an inverted light microscope.
# [3] = tested on: A549 xenograft in BALB/c nude mice; assay: A549 xenograft tumor growth; assay type: in vivo, mouse; conditions: 20 mg/kg intratumorally, every other day, six injections, subcutaneous A549
# Method: as §1
# [4] = tested on: H1299 cells; assay: Annexin V/PI staining, flow cytometry; assay type: cell-based, human
# Method: (§3) The treated cells (1 × 10^6) were harvested, washed with PBS, and collected by centrifugation. Cells were stained with Annexin V and propidium iodide (PI) solution (556547; BD Biosciences, San Jose, CA, USA), followed by incubation at 37 °C for 15 min. […] As a negative control, z-VAD-FMK was added to each experimental condition according to the manufacturer’s instructions (ab65615; caspase 9 FITC staining kit). The cells were resuspended in 300 μL of a washing buffer and were analyzed by a flow cytometer (Accuri C6 Plus; BD Biosciences, San Jose, CA, USA).
# [5] = tested on: A549 cells; assay: Annexin V/PI staining, flow cytometry; assay type: cell-based, human; conditions: A549, upper end of the increase (20 μM)
# Method: as §3
# [6] = tested on: H460 cells; assay: Annexin V/PI staining, flow cytometry; assay type: cell-based, human
# Method: as §3
# [7] = tested on: cellular vimentin in lung cancer cells; assay: Vimentin immunofluorescence staining; assay type: cell-based, human; conditions: 10 μM MP28, immunofluorescence
# [8] = tested on: lung cancer cells; assay: Wound-healing assay; assay type: cell-based, human; conditions: more pronounced at 24 h
# Method: For the wound-healing assays, cancer cells were grown to >90% confluence in 6-well plates, and scratches were created using a pipette tip. After washing, the cells were incubated in a medium with 10% FBS for 18 h and 24 h. Wound closure was monitored using an inverted phase-contrast microscope (CKX53, Olympus, Shinjuku, Tokyo, Japan), and migration was quantified by measuring the distance between wound edges at multiple sites.
# [9] = tested on: NSCLC cells; assay: Transwell migration assay; assay type: cell-based, human; conditions: Transwell 8 μm pores, 10 μM
# Method: (§4) Cell migration and invasion were assessed using Transwell chambers with 8 μm pores (BD Biosciences). Cancer cells (2 × 10^4) were seeded in serum-free medium in the upper chamber, while medium containing 10% FBS was placed in the lower chamber. Matrigel-coated upper chambers were used for invasion assays. Following incubation, the migratory and invasive cells were fixed, stained with crystal violet, and imaged under a light microscope.
# [10] = tested on: NSCLC cells; assay: Transwell invasion assay (Matrigel-coated); assay type: cell-based, human; conditions: 10 μM
# Method: as §4
# [11] = tested on: caspase-9 in NSCLC cells (A549, H460, H1299); assay: Active caspase-9 (FITC-LEHD-FMK) staining; assay type: cell-based, human
# Method: as §3
# [12] = tested on: horse blood erythrocytes; assay: Hemolytic activity assay; assay type: cell-based; conditions: 20 μM
# From the text: In this assay, 1% Triton X-100, which causes 100% hemolysis of horse blood erythrocytes, was used as a positive control to indicate complete cell lysis. DW solution served as a negative control, indicating no hemolytic activity.
# [13] = tested on: NSCLC cells (A549, H460, H1299); assay: Colony formation assay; assay type: cell-based, human; conditions: 10 and 20 μM, 7 days, crystal violet, all NSCLCs
# Method: as §2
structure (smiles),measurement,setting,value
CC(C)C[C@H](NC(=O)[C@H](Cc1c[nH]c2ccccc12)NC(=O)[C@@H]1CCCN1C(=O)[C@H](CCCCN)NC(=O)[C@H](CCCCN)NC(=O)[C@H](CS)NC(=O)[C@@H](N)CS)C(=O)N[C@@H](CCCNC(=N)N)C(=O)N[C@@H](CS)C(=O)N[C@@H](Cc1c[nH]c2ccccc12)C(=O)N[C@@H](CCCNC(=N)N)C(=O)N[C@H](C(=O)N[C@@H](CS)C(=O)N[C@@H](CC(C)C)C(=O)N1CCC[C@H]1C(=O)N[C@@H](CO)C(=O)N[C@@H](CCCNC(=N)N)C(=O)N[C@@H](Cc1c[nH]c2ccccc12)C(=O)N[C@@H](CCC(N)=O)C(=O)N[C@@H](CCCNC(=N)N)C(=O)N[C@@H](CCC(=O)O)C(=O)N[C@@H](CCCNC(=N)N)C(=O)N[C@@H](Cc1ccccc1)C(=O)NCC(=O)N[C@@H](CCCNC(=N)N)C(=O)N[C@@H](CCCCN)C(=O)N[C@@H](CS)C(N)=O)[C@@H](C)O [MP28] (H-CCKKPWLRCWRTCLPSRWQRERFGRKC-NH2; N-terminus assumed),body weight versus control,[1],No significant loss of body weight
same,morphological changes,[2],morphological changes from a spindle to a cobblestone-like shape
same,tumor growth versus control,[3],tumor growth was significantly slower
same,percentage of apoptotic cells,"[4]; H1299, lower end of the increase (10 μM as read from the text)",3.1%
same,percentage of apoptotic cells,"[4]; H1299, upper end of the increase (20 μM)",17.8%
same,percentage of apoptotic cells,[5],15.6%
same,percentage of apoptotic cells,"[6]; H460, lower end of the increase (10 μM as read from the text)",7.5%
same,percentage of apoptotic cells,"[6]; H460, upper end of the increase (20 μM)",19.2%
same,cellular vimentin level,[7],decreased the levels of cellular vimentin
same,residual wound area versus control,[8],larger residual wound areas
same,migratory capacity,[9],significantly reduced
same,invasive capacity,[10],significantly reduced
same,caspase-9 activation,"[11]; 10 μM MP28 for 3 h, NSCLCs, FITC fluorescence microscopy and flow cytometry",triggered caspase-9 activation
same,induction of cleaved caspase-9,[11]; A549 and H460 cells (wild-type p53),more rapid and robust induction of cleaved caspase-9
same,induction of cleaved caspase-9,[11]; H1299 cells (p53-deficient),weaker activation signal
same,hemolysis (in words),[12],no or minimal hemolysis
same,colony formation (long term cell proliferation),[13],markedly reduced cell growth
